# Measurements reported in ChEMBL document CHEMBL1201862, “PubChem BioAssay data set” (2004).
#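 Interpolation was linear, between the two tested concentrations surrounding the appropriate level; five concentrations were tested over 48 hours in 96-well plates. The concentration for 50% growth inhibition is given as GI50.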 Calls of active or inactive are those of the source. Rule as the data show it: active = GI50 up to about 1.1 µM and inactive = higher.
# Tests used:
# Assay in all cases: inhibition of tumour cell growth, NCI panel, 48 h
# MDA-N = system: MDA-N
# SK-MEL-2 = system: SK-MEL-2
# BT-549 = system: BT-549
# MDA-MB-435 = system: MDA-MB-435
# MCF7 = system: MCF7
# EKVX = system: EKVX
# U-251 = system: U-251
# CCRF-CEM = system: CCRF-CEM
# NCI-H23 = system: NCI-H23
# HT-29 = system: HT-29
# OVCAR-8 = system: OVCAR-8
# IGROV-1 = system: IGROV-1
# UO-31 = system: UO-31
# A549 = system: A549
# A498 = system: A498
# UACC-257 = system: UACC-257
# UACC-62 = system: UACC-62
# KM12 = system: KM12
# LOX IMVI = system: LOX IMVI
Compound,GI50 (MDA-N),GI50 (SK-MEL-2),GI50 (BT-549),GI50 (MDA-MB-435),GI50 (MCF7),GI50 (EKVX),GI50 (U-251),GI50 (CCRF-CEM),GI50 (NCI-H23),GI50 (HT-29),GI50 (OVCAR-8),GI50 (IGROV-1),GI50 (UO-31),GI50 (A549),GI50 (A498),GI50 (UACC-257),GI50 (UACC-62),GI50 (KM12),GI50 (LOX IMVI)
c1ccc(C(OCCN2CC3CCC(C2)N3)c2ccccc2)cc1,26.4 µM (inactive),76.7 µM (inactive),22 µM (inactive),35.9 µM (inactive),48.6 µM (inactive),> 100 µM (inactive),> 100 µM (inactive),> 100 µM (inactive),> 100 µM (inactive),31.6 µM (inactive),> 100 µM (inactive),94.6 µM (inactive),64 µM (inactive),> 100 µM (inactive),74 µM (inactive),22.7 µM (inactive),27.7 µM (inactive),54 µM (inactive),66.4 µM (inactive)
CN(/N=C/c1ccccn1)C1=NCCCCN1,> 100 µM (inactive),> 100 µM (inactive),> 100 µM (inactive),> 100 µM (inactive),> 100 µM (inactive),> 100 µM (inactive),> 100 µM (inactive),> 100 µM (inactive),> 100 µM (inactive),> 100 µM (inactive),> 100 µM (inactive),> 100 µM (inactive),> 100 µM (inactive),> 100 µM (inactive),> 100 µM (inactive),> 100 µM (inactive),> 100 µM (inactive),> 100 µM (inactive),> 100 µM (inactive)
COc1ccc(P2(=S)Oc3ccc(C(c4ccccc4)(c4ccccc4)c4ccccc4)cc3O2)cc1 (centres undefined),18.5 µM (inactive),20.5 µM (inactive),24.9 µM (inactive),16.4 µM (inactive),16.8 µM (inactive),20.2 µM (inactive),18 µM (inactive),24.9 µM (inactive),16.9 µM (inactive),18.8 µM (inactive),16 µM (inactive),17.5 µM (inactive),17 µM (inactive),16.6 µM (inactive),17.7 µM (inactive),19.2 µM (inactive),13.4 µM (inactive),15 µM (inactive),14.5 µM (inactive)
CCC(C)(C)c1ccc(Oc2cccc(C(=O)O)c2)cc1,47.6 µM (inactive),45.2 µM (inactive),66.7 µM (inactive),45 µM (inactive),36.8 µM (inactive),40.4 µM (inactive),41.8 µM (inactive),28.9 µM (inactive),52.2 µM (inactive),44.4 µM (inactive),69.7 µM (inactive),> 100 µM (inactive),48.1 µM (inactive),38.2 µM (inactive),53.8 µM (inactive),> 100 µM (inactive),34.6 µM (inactive),47.1 µM (inactive),50.4 µM (inactive)
COC(=O)C1=C(O)C(C(=O)OC)[C@]2(O)[C@H](C(=O)OC)[C@H]1C[C@@H](c1ccc(F)cc1)[C@H]2C(=O)OC (some centres undefined),3.87 µM (inactive),4.35 µM (inactive),21.4 µM (inactive),5.43 µM (inactive),5.35 µM (inactive),17.3 µM (inactive),15.4 µM (inactive),6.85 µM (inactive),14 µM (inactive),16.6 µM (inactive),20.9 µM (inactive),18.8 µM (inactive),14.1 µM (inactive),19.3 µM (inactive),16.8 µM (inactive),11.9 µM (inactive),13.5 µM (inactive),18.1 µM (inactive),18.4 µM (inactive)
O=[N+]([O-])c1cc2ccc1OCc1cccc(n1)COc1ccc(cc1[N+](=O)[O-])/C=N\CCCCCCCC/N=C\2,> 100 µM (inactive),> 100 µM (inactive),> 100 µM (inactive),> 100 µM (inactive),> 100 µM (inactive),> 100 µM (inactive),> 100 µM (inactive),> 100 µM (inactive),> 100 µM (inactive),> 100 µM (inactive),> 100 µM (inactive),> 100 µM (inactive),> 100 µM (inactive),> 100 µM (inactive),> 100 µM (inactive),> 100 µM (inactive),> 100 µM (inactive),> 100 µM (inactive),> 100 µM (inactive)
N=c1oc2ccc(Cl)cc2cc1C(=O)Nc1ccccc1,> 100 µM (inactive),> 100 µM (inactive),> 54 µM (inactive),> 100 µM (inactive),19.6 µM (inactive),> 59 µM (inactive),> 46.1 µM (inactive),> 100 µM (inactive),> 48.5 µM (inactive),> 100 µM (inactive),56.5 µM (inactive),26.1 µM (inactive),> 47 µM (inactive),> 100 µM (inactive),> 100 µM (inactive),> 54.6 µM (inactive),> 100 µM (inactive),79.4 µM (inactive),> 100 µM (inactive)
O=[N+]([O-])C1=Cc2cc(Cl)ccc2OC1c1cccc2ccccc12 (centres undefined),1 µM (active),1.36 µM (inactive),0.436 µM (active),1.44 µM (inactive),0.521 µM (active),1.27 µM (inactive),1.56 µM (inactive),0.191 µM (active),0.847 µM (active),0.637 µM (active),0.614 µM (active),0.625 µM (active),1.26 µM (inactive),1.7 µM (inactive),1.86 µM (inactive),1.34 µM (inactive),1.57 µM (inactive),1.79 µM (inactive),0.29 µM (active)
CCCCCCCCCCCCCC[C@@H](O)[C@H]1CC[C@H]([C@H]2CC[C@H]([C@H](O)CCCCCC[C@@H](O)CC3=C[C@H](C)OC3=O)O2)O1,2.03 µM (inactive),> 25 µM (inactive),> 25 µM (inactive),> 25 µM (inactive),> 15.3 µM (inactive),> 7.52 µM (inactive),> 25 µM (inactive),> 25 µM (inactive),1.2 µM (inactive),1.7 µM (inactive),1.75 µM (inactive),> 25 µM (inactive),> 25 µM (inactive),> 25 µM (inactive),> 12.5 µM (inactive),3.65 µM (inactive),1.54 µM (inactive),> 25 µM (inactive),1.22 µM (inactive)
COC(=O)c1nc2n(n1)-c1ccccc1C(=O)N(Cc1ccccc1)C2,> 100 µM (inactive),> 100 µM (inactive),> 100 µM (inactive),> 100 µM (inactive),> 100 µM (inactive),> 100 µM (inactive),> 100 µM (inactive),> 100 µM (inactive),> 100 µM (inactive),> 100 µM (inactive),> 100 µM (inactive),> 100 µM (inactive),> 100 µM (inactive),> 100 µM (inactive),> 100 µM (inactive),> 100 µM (inactive),> 100 µM (inactive),> 100 µM (inactive),> 100 µM (inactive)
CCOP(=O)(/C=C/n1cc(C)c(=O)[nH]c1=O)OCC,> 100 µM (inactive),> 100 µM (inactive),> 100 µM (inactive),> 100 µM (inactive),> 100 µM (inactive),> 100 µM (inactive),> 100 µM (inactive),> 100 µM (inactive),> 100 µM (inactive),> 100 µM (inactive),> 100 µM (inactive),> 100 µM (inactive),–,> 100 µM (inactive),> 100 µM (inactive),> 100 µM (inactive),> 100 µM (inactive),> 100 µM (inactive),> 100 µM (inactive)
CC1CCC2(OC1)OC1CC3C4CC=C5CC(OC6OC(CO)C(OC7OC(C)C(OC8OC(C)C(O)C(O)C8O)C(O)C7O)C(O)C6OC6OC(C)C(O)C(O)C6O)CCC5(C)C4CCC3(C)C1C2C (centres undefined),0.4 µM (active),1.21 µM (inactive),1.66 µM (inactive),0.281 µM (active),1.38 µM (inactive),0.757 µM (active),0.65 µM (active),0.0643 µM (active),1.66 µM (inactive),1 µM (active),0.326 µM (active),1.3 µM (inactive),0.216 µM (active),0.312 µM (active),0.291 µM (active),0.74 µM (active),0.311 µM (active),0.16 µM (active),0.185 µM (active)
O=C1c2cc(Cl)ccc2N=C(NC2CCCC2)C2CSCN12 (centres undefined),> 100 µM (inactive),36.2 µM (inactive),> 100 µM (inactive),> 100 µM (inactive),> 100 µM (inactive),46.6 µM (inactive),> 100 µM (inactive),45.2 µM (inactive),–,28.9 µM (inactive),> 100 µM (inactive),> 100 µM (inactive),46.3 µM (inactive),> 100 µM (inactive),68.9 µM (inactive),71.6 µM (inactive),> 100 µM (inactive),35.7 µM (inactive),> 100 µM (inactive)
O=C/C(=C(/Br)I)c1ccccc1,2.54 µM (inactive),3.42 µM (inactive),2.42 µM (inactive),2.56 µM (inactive),1.3 µM (inactive),15.3 µM (inactive),4.1 µM (inactive),0.248 µM (active),5.11 µM (inactive),2.29 µM (inactive),2.83 µM (inactive),4.41 µM (inactive),4.97 µM (inactive),22.9 µM (inactive),18.6 µM (inactive),5.69 µM (inactive),6.7 µM (inactive),6.61 µM (inactive),3.81 µM (inactive)
